In US9969723B2, “3-(4-(benzyloxy)phenyl)hex-4-ynoic acid derivative, method of preparing same and pharmaceutical composition for preventing and treating metabolic disease including same as effective ingredient” (HYUNDAI PHARM CO., LTD, priority 2014, dated 2018):
Where two headings read alike, the source gives them in different places.

What was measured:
[1] = system: Male OLETF (Otsuka Long-Evans Tokushima fatty) rats, the type II diabetes animal model (obesity); assay: Oral glucose tolerance test (OGTT) 3; format: in vivo, rat
Protocol: (§1) Male OLETF (Otsuka Long-Evans Tokushima fatty) rats at 29˜30 weeks, the type II diabetes animal model (obesity), were adapted at least for 7 days. Only healthy animals were selected thereafter, followed by OGTT. After fasting for 16˜18 hours, 5 rats per group were randomly selected and orally administered with the compounds prepared in Examples 5, 9, 14, 28, 37, and 47 at the dose of 1˜10 mg/kg. At this time, 5% polyethyleneglycol (PEG) was orally administered at the same dose to the non-treated group rats. 60 minutes after the sample administration, glucose (4 g/kg) was orally administered thereto at the dose of 5 ml/kg. Then, blood glucose was measured by using Accu-chek active strip (Roche diagnostic Co.). The time for the measurement was set at 60 minutes before the glucose administration (−60), 0 minute, 20 minutes, 40 minutes, 60 minutes, and 120 minutes after the glucose administration, and blood glucose was measured through tail vein puncture.

[2] = system: Male Goto-Kakizaki (GK) rats, the type II diabetes animal model (not obesity); assay: Oral glucose tolerance test (OGTT) 2; format: in vivo, rat
Protocol: as §1, with “Goto-Kakizaki (GK)” for “OLETF (Otsuka Long-Evans Tokushima fatty)”, “22˜23” for “29˜30”, “(not obesity),” for “(obesity),”, “0.3˜10” for “1˜10”

[3] = biological target: GPR40 (Homo sapiens (Human), UniProt O14842); assay: GPR40 protein activity by intracellular calcium concentration (Fluo-4, Flexstation 3) in transfected HEK-293 cells; format: cell-based; conditions: HEK-293 cells transfected with human GPR40, intracellular calcium
GPR40, sequence (O14842 whole entry): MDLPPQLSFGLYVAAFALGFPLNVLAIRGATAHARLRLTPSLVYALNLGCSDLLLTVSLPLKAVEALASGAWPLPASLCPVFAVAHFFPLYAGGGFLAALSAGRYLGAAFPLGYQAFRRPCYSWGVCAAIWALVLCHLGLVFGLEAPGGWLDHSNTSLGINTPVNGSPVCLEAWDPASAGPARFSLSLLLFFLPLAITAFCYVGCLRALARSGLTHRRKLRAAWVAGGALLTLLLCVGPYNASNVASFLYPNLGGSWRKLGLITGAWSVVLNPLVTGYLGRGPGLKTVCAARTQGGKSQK
Protocol: The GPR40 protein activity according to the novel 3-(4-(benzyloxy)phenyl)hex-4-inoic acid derivative of the present invention was measured by investigating the changes in intracellular calcium concentration affected by the GRP40 activation. First, HEK-293 cells were transfected with human GPR40 DNA (Origene, RC218370) by using Fugene HD (Promega, E2311). […] 24 hours later, the cell culture medium was replaced with Dulbecco's Modified Eagle Medium (DMEM, 50 μl/well) supplemented with 1% fetal bovine serum (FBS). To measure the calcium concentration, 50 μl of Fluo-4 reagent (Invitrogen, F10471) was added to each well, followed by culture in a 37° C. incubator for 2 hours. […] 2 hours after the culture began, those prepared samples were automatically injected to the cells by using Flexstation 3 (Molecular Devices). Then, intracellular calcium concentration was measured for 120 seconds by using SoftMax® Pro software. At this time, dimethylsulfoxide (DMSO) was injected to the cells for the non-treated group, followed by measuring the calcium concentration therein. The GPR40 protein activity was calculated by the below mathematical formula 1 with the results of calcium concentration measurement. GPR40 activity=(intracellular calcium concentration increased by the sample)/(intracellular calcium concentration of the non-treated group)×100 [Mathematical Formula 1]

[4] = values in text, read-out: EC50, concentration promoting activation of GPR40 protein by 50%
[5] = oral dose 10 mg/kg, values in text

| SMILES | % AUC ([1]; oral dose 1 mg/kg) | % AUC ([1]; oral dose 3 mg/kg) | % AUC ([1]; oral dose 10 mg/kg) | % AUC ([2]; oral dose 0.3 mg/kg) | % AUC ([2]; oral dose 1 mg/kg) | % AUC ([2]; oral dose 3 mg/kg) | % AUC ([2]; oral dose 10 mg/kg) | EC50 ([3]; read-out: EC50) [nM] | EC50 [3, 4] [nM] | hypoglycemic effect compared to Comparative Example 1 at 10 mg/kg ([1]; oral dose 1 mg/kg) | hypoglycemic effect compared with the non-treated group [1, 5] | hypoglycemic effect by that of the non-treated group [2, 5] |
| --- | --- | --- | --- | --- | --- | --- | --- | --- | --- | --- | --- | --- |
| CC#CC(CC(=O)O)c1ccc(OCc2cccc(C3=CCC(O)CC3)c2)cc1 (stereo not shown) [Example 5, 3-(4-(3-(4-hydroxycyclohex-1-enyl)benzyloxy)phenyl)hex-4-ynoic acid] | B (25.0-35.0%) | B (25.0-35.0%) | A (over 35.0%) | C (under 25.0%) | C (under 25.0%) | C (under 25.0%) | B (25.0-35.0%) | 200 to 300 | – | – | – | – |
| CC#CC(CC(=O)O)c1ccc(OCc2ccc(CN3CC=C(c4ccccc4)CC3)cc2)cc1 (stereo not shown) [Example 14, 3-(4-(4-((4-phenyl-5,6-dihydropyridine-1(2H)-yl)methyl)benzyloxy)phenyl)hex-4-ynoic acid] | C (under 25.0%) | B (25.0-35.0%) | B (25.0-35.0%) | C (under 25.0%) | C (under 25.0%) | B (25.0-35.0%) | B (25.0-35.0%) | < 200 | < 200 | – | – | – |
| CC#C[C@@H](CC(=O)O)c1ccc(OCc2ccc(CN3CC=C(c4ccccc4)CC3)cc2)cc1 [Example 28, (S)-3-(4-(4-((4-phenyl-5,6-dihydropyridine-1(2H)-yl)methyl)benzyloxy)phenyl)hex-4-ynoic acid] | B (25.0-35.0%) | B (25.0-35.0%) | B (25.0-35.0%) | C (under 25.0%) | C (under 25.0%) | C (under 25.0%) | B (25.0-35.0%) | < 200 | < 200 | – | – | – |
| CC#C[C@@H](CC(=O)[O-])c1ccc(OCc2ccc(CN3Cc4ccccc4C3)cc2)cc1.[Na+] [Example 37, sodium (S)-3-(4-(4-(isoindoline-2-ylmethyl)benzyloxy)phenyl)hex-4-ynoate] | A (over 35.0%) | A (over 35.0%) | A (over 35.0%) | C (under 25.0%) | B (25.0-35.0%) | B (25.0-35.0%) | A (over 35.0%) | – | – | higher hypoglycemic effect | more than 35.0% | more than 35.0% |
| CC#C[C@@H](CC(=O)[O-])c1ccc(OCc2cccc(N3CCN(c4ccc(OC)cc4)CC3)c2)cc1.[Na+] [Example 47, sodium (S)-3-(4-(3-(4-(4-methoxyphenyl)piperazin-1-yl)benzyloxy)phenyl)hex-4-ynoate] | C (under 25.0%) | C (under 25.0%) | B (25.0-35.0%) | C (under 25.0%) | C (under 25.0%) | B (25.0-35.0%) | B (25.0-35.0%) | 200 to 300 | – | – | – | – |
| CC#C[C@@H](CC(=O)O)c1ccc(OCc2ccc(CCN3Cc4ccccc4C3)cc2)cc1 [Example 49, (S)-3-(4-(4-(2-(isoindoline-2-yl)ethyl)benzyloxy)phenyl)hex-4-ynoic acid] | – | – | – | – | – | – | – | > 300 | – | – | – | – |
| CC#C[C@@H](CC(=O)O)c1ccc(OCc2ccc(CCN3CCc4ccccc4C3)cc2)cc1 [Example 50, (S)-3-(4-(4-(2-(3,4-dihydroisoquinoline-2(1H)-yl)ethyl)benzyloxy)phenyl)hex-4-ynoic acid] | – | – | – | – | – | – | – | > 300 | – | – | – | – |
